Like-named read-outs stand apart in the source and are kept apart here.
Assays:
[1] = target: T1, AEA-DA lipid probe targets in Neuro2a cells (Mus musculus, UniProt Q3V009)
T1 sequence (Q3V009 25-227): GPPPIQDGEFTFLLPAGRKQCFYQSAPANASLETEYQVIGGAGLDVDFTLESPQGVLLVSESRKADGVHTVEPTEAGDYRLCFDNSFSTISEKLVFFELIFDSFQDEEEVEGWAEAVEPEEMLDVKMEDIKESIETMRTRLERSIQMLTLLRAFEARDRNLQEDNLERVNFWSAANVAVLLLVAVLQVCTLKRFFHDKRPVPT

[2] = target: T2, AEA-DA lipid probe targets in Neuro2a cells (Mus musculus, UniProt Q8BMG8)
T2 sequence (Q8BMG8 1-316): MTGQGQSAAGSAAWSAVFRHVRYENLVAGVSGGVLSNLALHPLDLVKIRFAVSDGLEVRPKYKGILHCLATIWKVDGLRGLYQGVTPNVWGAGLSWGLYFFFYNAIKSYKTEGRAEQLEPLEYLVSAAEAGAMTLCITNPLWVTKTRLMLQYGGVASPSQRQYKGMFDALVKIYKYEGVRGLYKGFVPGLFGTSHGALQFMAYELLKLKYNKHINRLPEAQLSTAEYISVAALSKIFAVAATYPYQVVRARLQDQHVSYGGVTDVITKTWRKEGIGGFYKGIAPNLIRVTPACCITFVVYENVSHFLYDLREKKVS

[3] = target: T3, AEA-DA lipid probe targets in Neuro2a cells (Mus musculus, UniProt Q924Z4); details: for SILAC ratio, CERS2 (Q924Z4): Neuro2a cells, AEA-DA probe
T3 sequence (Q924Z4 1-380): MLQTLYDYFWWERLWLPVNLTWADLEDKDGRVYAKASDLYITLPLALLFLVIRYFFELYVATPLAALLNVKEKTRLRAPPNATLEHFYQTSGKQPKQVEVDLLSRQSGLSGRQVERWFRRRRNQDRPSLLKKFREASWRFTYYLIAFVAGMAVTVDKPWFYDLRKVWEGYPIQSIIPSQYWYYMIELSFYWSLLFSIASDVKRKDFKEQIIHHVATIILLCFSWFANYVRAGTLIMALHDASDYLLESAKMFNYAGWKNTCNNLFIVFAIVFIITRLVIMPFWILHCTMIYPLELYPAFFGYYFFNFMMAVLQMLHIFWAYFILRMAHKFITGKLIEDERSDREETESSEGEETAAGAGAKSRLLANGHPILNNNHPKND

[4] = target: T4, AEA-DA lipid probe targets in Neuro2a cells (Mus musculus, UniProt Q8VD00)
T4 sequence (Q8VD00 1-176): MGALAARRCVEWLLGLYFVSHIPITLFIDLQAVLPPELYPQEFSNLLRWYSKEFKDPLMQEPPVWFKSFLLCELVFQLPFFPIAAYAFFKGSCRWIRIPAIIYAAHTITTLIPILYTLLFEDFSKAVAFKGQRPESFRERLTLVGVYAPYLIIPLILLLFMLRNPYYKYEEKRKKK

[5] = target: AEA-DA lipid probe targets in Neuro2a cells (Mus musculus, UniProt Q9Z0V8)
[6] = target: AEA-DA lipid probe targets in Neuro2a cells (Mus musculus, UniProt Q8VDQ1)
[7] = target: AEA-DA lipid probe targets in Neuro2a cells (Mus musculus, UniProt Q9ET22)
[8] = target: AEA-DA lipid probe targets in Neuro2a cells (Mus musculus, UniProt Q91XC9)
[9] = target: AEA-DA lipid probe targets in Neuro2a cells (Mus musculus, UniProt Q9JKW0)
[10] = tested on: PGE2 and TXB2 production in PMA-stimulated A549 cells; assay: Prostaglandin production in A549 cells; assay type: cell-based, human; details: 10 μM, 30 min pre-treatment, then PMA
Procedure: The old media was removed from each plate and cells were washed with DPBS (2×3 mL) before adding freshly prepared media solutions containing vehicle or compound (3 mL/plate). After incubating for 30 min at 37° C., cells were then stimulated with PMA (10 nM) for 8 h. The media from the cells was then transferred to glass vials containing MS internal standards [PGE2-d9 (10 pmol), PGD2-d9 (10 pmol) and TXB2-d4 (10 pmol)], centrifuged (1,500×g, 5 min) to remove detached cells and then loaded onto preequilibrated reversed phase SPE cartridges (Phenomenex, Strata-X 33 μm, 60 mg/3 mL). After washing cartridges with 5% MeOH/H2O (3 mL), analytes were eluted with MeOH (1.0 mL) and the eluent was concentrated under a stream of N2. Concentrated samples were stored at −80° C. until the day of analysis when they were reconstituted in Mobile Phase A [100 μL, 30% CH3CN in H2O (0.1% AcOH)]. Media extracts were analyzed by LC/MS/MS with LC separation performed on a Kinetex reversed phase C18 column (50×4.6 mm, 2.6 μM particle size, 100Å). Mobile phase gradients were identical to those described above for prostamide analysis and the composition Mobile phases A and B differed only by lacking NH4OAc (5 mM). The following MS parameters were used to measure the indicated metabolites by MRM (precursor ion, product ion, collision energy, polarity): PGE2 (351, 271, 12, negative), PGE2-d9 (360, 280, 12, negative), TXB2 (369, 169, 6, negative), TXB2-d4 (373, 173, 6, negative). PGE2 and TXB2 levels were quantified by determining peak areas in relation to their deuterated internal standard.

AEA-DA lipid probe targets in Neuro2a cells (Mus musculus, UniProt Q9Z0V8), sequence (Q9Z0V8 whole entry): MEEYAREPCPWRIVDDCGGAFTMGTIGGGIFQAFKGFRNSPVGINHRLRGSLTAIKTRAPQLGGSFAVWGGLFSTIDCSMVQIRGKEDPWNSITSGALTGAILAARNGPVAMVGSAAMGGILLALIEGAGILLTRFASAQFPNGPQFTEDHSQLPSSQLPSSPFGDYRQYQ
AEA-DA lipid probe targets in Neuro2a cells (Mus musculus, UniProt Q8VDQ1), sequence (Q8VDQ1 whole entry): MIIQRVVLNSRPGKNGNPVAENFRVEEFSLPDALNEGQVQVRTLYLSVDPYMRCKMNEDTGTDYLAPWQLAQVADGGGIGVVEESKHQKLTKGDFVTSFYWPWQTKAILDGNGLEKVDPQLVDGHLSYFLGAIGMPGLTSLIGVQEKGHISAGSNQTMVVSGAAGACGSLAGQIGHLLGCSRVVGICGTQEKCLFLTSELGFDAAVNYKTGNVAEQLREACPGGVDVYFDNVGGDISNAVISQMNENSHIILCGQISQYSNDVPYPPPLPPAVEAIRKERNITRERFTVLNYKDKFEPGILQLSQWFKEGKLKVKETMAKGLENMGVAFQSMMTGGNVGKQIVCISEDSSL
AEA-DA lipid probe targets in Neuro2a cells (Mus musculus, UniProt Q9JKW0), sequence (Q9JKW0 whole entry): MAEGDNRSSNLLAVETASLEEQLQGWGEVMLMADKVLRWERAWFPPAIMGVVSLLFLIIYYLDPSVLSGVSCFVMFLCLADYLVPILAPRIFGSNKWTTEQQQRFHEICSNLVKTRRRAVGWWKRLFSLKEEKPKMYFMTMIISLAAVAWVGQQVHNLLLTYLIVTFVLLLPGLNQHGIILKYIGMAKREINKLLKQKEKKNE
AEA-DA lipid probe targets in Neuro2a cells (Mus musculus, UniProt Q9ET22), sequence (Q9ET22 37-506): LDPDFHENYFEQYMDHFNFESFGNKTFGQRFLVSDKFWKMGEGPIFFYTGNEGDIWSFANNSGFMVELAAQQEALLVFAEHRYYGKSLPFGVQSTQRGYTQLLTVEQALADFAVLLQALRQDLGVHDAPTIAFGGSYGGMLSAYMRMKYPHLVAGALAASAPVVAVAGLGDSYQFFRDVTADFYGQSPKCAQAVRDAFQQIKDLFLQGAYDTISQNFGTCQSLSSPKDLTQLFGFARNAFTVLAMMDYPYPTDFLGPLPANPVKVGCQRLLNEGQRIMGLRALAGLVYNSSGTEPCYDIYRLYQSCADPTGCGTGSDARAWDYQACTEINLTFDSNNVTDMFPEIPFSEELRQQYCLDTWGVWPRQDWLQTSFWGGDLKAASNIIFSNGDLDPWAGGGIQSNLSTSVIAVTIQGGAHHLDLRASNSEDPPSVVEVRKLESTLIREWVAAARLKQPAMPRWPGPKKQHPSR
AEA-DA lipid probe targets in Neuro2a cells (Mus musculus, UniProt Q91XC9), sequence (Q91XC9 whole entry): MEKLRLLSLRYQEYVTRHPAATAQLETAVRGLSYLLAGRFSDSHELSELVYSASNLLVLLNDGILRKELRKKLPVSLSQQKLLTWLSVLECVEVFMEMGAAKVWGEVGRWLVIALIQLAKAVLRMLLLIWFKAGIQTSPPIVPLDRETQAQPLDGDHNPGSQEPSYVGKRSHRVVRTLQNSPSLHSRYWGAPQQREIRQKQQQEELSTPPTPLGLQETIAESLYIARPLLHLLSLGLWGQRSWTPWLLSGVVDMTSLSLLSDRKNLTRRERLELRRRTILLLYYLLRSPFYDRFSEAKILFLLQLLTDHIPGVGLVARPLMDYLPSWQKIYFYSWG

CCCCC/C=C\C/C=C\C/C=C\C/C=C\CCCC(=O)NCCO [AEA, anandamide, reference compound]
SILAC ratio, Tmed1 ([1]; competitor 200 μM): 2.1
SILAC ratio, Slc25a32 ([2]; competitor 200 μM): 1.5
SILAC ratio, CERS2 (Q924Z4) ([3]; competitor 200 μM): 2.4
SILAC ratio, Cers2 ([3]; competitor 200 μM): 2.4
SILAC ratio, Tmem97 ([4]; competitor 200 μM): 1.8
SILAC ratio, Timm17a ([5]; competitor 200 μM): 1.5
SILAC ratio, Ptgr2 ([6]; competitor 200 μM): 8.7
SILAC ratio Dpp7 ([7]; competitor 200 μM): 1.4
SILAC ratio, Pex16 ([8]; competitor 200 μM): 1.7
SILAC ratio Arl6ip1 ([9]; competitor 200 μM): 1.5

O=C(/C=C/c1cccnc1)NCCCCC1CCN(C(=O)c2ccccc2)CC1 [FK-866, reference compound]
SILAC ratio, Tmed1 ([1]; competitor 25 μM): 1.3
SILAC ratio, Slc25a32 ([2]; competitor 25 μM): 1.1
SILAC ratio, CERS2 (Q924Z4) ([3]; competitor 25 μM): 1.2
SILAC ratio, Cers2 ([3]; competitor 25 μM): 1.2
SILAC ratio, Tmem97 ([4]; competitor 25 μM): 1.0
SILAC ratio, Timm17a ([5]; competitor 25 μM): 1.1
SILAC ratio, Ptgr2 ([6]; competitor 25 μM): 5.2
SILAC ratio Dpp7 ([7]; competitor 25 μM): 1.0
SILAC ratio, Pex16 ([8]; competitor 25 μM): 1.1
SILAC ratio Arl6ip1 ([9]; competitor 25 μM): 1.0
PGE2 synthesis from endogenous AA [10]: no effect
TXB2 synthesis from endogenous AA [10]: complete suppression

CN1CCN(C(=O)c2c(-c3ccccc3)c3cc([N+](=O)[O-])ccc3n2C)CC1 [KML110, (1-Methyl-5-nitro-3-phenyl-1H-indol-2-yl)(4-methylpiperazin-1-yl)methanone]
SILAC ratio, Tmed1 ([1]; competitor 25 μM): 1.6
SILAC ratio, Slc25a32 ([2]; competitor 25 μM): 1.5
SILAC ratio, Cers2 ([3]; competitor 25 μM): 2.2
SILAC ratio, Tmem97 ([4]; competitor 25 μM): 1.6
SILAC ratio, Timm17a ([5]; competitor 25 μM): 1.5
SILAC ratio, Ptgr2 ([6]; competitor 25 μM): 1.5
SILAC ratio Dpp7 ([7]; competitor 25 μM): 1.5
SILAC ratio, Pex16 ([8]; competitor 25 μM): 1.4
SILAC ratio Arl6ip1 ([9]; competitor 25 μM): 1.4
PGE2 synthesis from endogenous AA [10]: suppress
TXB2 synthesis from endogenous AA [10]: suppress

CN1CCN(C(=O)c2[nH]c3ccc([N+](=O)[O-])cc3c2-c2ccccc2)CC1 [MJN228, (4-Methylpiperazin-1-yl)(5-nitro-3-phenyl-1H-indol-2-yl)methanone]
SILAC ratio, Tmed1 ([1]; competitor 10 μM): 1.1
SILAC ratio, Tmed1 ([1]; competitor 25 μM): 1.6
SILAC ratio, Tmed1 ([1]; competitor 50 μM): 2.1
SILAC ratio, Tmed1 ([1]; competitor 100 μM): 2.2
SILAC ratio, Slc25a32 ([2]; competitor 10 μM): 1.5
SILAC ratio, Slc25a32 ([2]; competitor 25 μM): 1.5
SILAC ratio, Slc25a32 ([2]; competitor 50 μM): 1.5
SILAC ratio, Slc25a32 ([2]; competitor 100 μM): 1.9
SILAC ratio, CERS2 (Q924Z4) ([3]; competitor 25 μM): 3.1
SILAC ratio, Cers2 ([3]; competitor 10 μM): 2.0
SILAC ratio, Cers2 ([3]; competitor 25 μM): 3.1
SILAC ratio, Cers2 ([3]; competitor 50 μM): 5.2
SILAC ratio, Cers2 ([3]; competitor 100 μM): 6.8
SILAC ratio, Tmem97 ([4]; competitor 10 μM): 1.4
SILAC ratio, Tmem97 ([4]; competitor 25 μM): 1.7
SILAC ratio, Tmem97 ([4]; competitor 50 μM): 2.1
SILAC ratio, Tmem97 ([4]; competitor 100 μM): 3.2
SILAC ratio, Timm17a ([5]; competitor 10 μM): 1.1
SILAC ratio, Timm17a ([5]; competitor 25 μM): 1.4
SILAC ratio, Timm17a ([5]; competitor 50 μM): 1.4
SILAC ratio, Timm17a ([5]; competitor 100 μM): 2.7
SILAC ratio, Ptgr2 ([6]; competitor 10 μM): 1.2
SILAC ratio, Ptgr2 ([6]; competitor 25 μM): 1.2
SILAC ratio, Ptgr2 ([6]; competitor 50 μM): 1.0
SILAC ratio, Ptgr2 ([6]; competitor 100 μM): 1.5
SILAC ratio Dpp7 ([7]; competitor 10 μM): 1.0
SILAC ratio Dpp7 ([7]; competitor 25 μM): 0.7
SILAC ratio Dpp7 ([7]; competitor 50 μM): 1.0
SILAC ratio Dpp7 ([7]; competitor 100 μM): 0.7
SILAC ratio, Pex16 ([8]; competitor 10 μM): 0.9
SILAC ratio, Pex16 ([8]; competitor 25 μM): 1.5
SILAC ratio, Pex16 ([8]; competitor 50 μM): 2.3
SILAC ratio, Pex16 ([8]; competitor 100 μM): 2.2
SILAC ratio Arl6ip1 ([9]; competitor 10 μM): 0.8
SILAC ratio Arl6ip1 ([9]; competitor 25 μM): 1.6
SILAC ratio Arl6ip1 ([9]; competitor 100 μM): 1.5
PGE2 synthesis from endogenous AA [10]: suppress
TXB2 synthesis from endogenous AA [10]: suppress

C=CCN(C)CCCCCCOc1ccc(C(=O)c2ccc(Br)cc2)c(F)c1 [Ro 48-8071, reference compound]
SILAC ratio, Tmed1 ([1]; competitor 25 μM): 1.2
SILAC ratio, Slc25a32 ([2]; competitor 25 μM): 1.1
SILAC ratio, CERS2 (Q924Z4) ([3]; competitor 25 μM): 1.6
SILAC ratio, Cers2 ([3]; competitor 25 μM): 1.6
SILAC ratio, Tmem97 ([4]; competitor 25 μM): 10.0
SILAC ratio, Timm17a ([5]; competitor 25 μM): 2.7
SILAC ratio, Ptgr2 ([6]; competitor 25 μM): 1.1
SILAC ratio Dpp7 ([7]; competitor 25 μM): 0.3
SILAC ratio, Pex16 ([8]; competitor 25 μM): 1.3
SILAC ratio Arl6ip1 ([9]; competitor 25 μM): 1.1

Source: US10168342B2, “Lipid probes and uses thereof” (THE SCRIPPS RESEARCH INSTITUTE, priority 2015, dated 2019)
